From BindingDB's records for doi:10.1016/j.ejmech.2018.10.048 (Touro University-California, 2019)

Assay: Inhibition of HIV1 gp41-induced cell-cell fusion between viral protein expressing human HL2/3 cells and TZM-bl target cells preincubated overnight with TZM-bl cells followed by co-incubation with HL2/3 cells for 6 hrs by luciferase reporter gene assay

SMILES | IC50 [nM]
Cc1cn(C(=O)OC(C)(C)C)c2cc(-c3ccc4ccn(Cc5cccc(C(=O)O)c5)c4c3)ccc12 | 2600
Cn1ncc2ccc(-c3ccc4ccn(Cc5cc(F)cc(C(=O)O)c5)c4c3)cc21 | 7000
Cn1ncc2ccc(-c3ccc4cnn(Cc5ccc(F)c(C(=O)O)c5)c4c3)cc21 | > 25000
Cn1ccc2ccc(-c3ccc4cnn(Cc5cc(F)cc(C(=O)O)c5)c4c3)cc21 | 4600
CN(C(=O)OC(C)(C)C)c1cccc(-c2ccc3ccn(Cc4cccc(C(=O)O)c4)c3c2)c1 | 5900
COc1cccc(Cn2ccc3ccc(-c4ccc5c(C)cn(Cc6cccc(C(=O)O)c6)c5c4)cc32)c1 | 4000
Cn1cc2ccc(-c3ccc4ccn(Cc5cc(F)cc(C(=O)O)c5)c4c3)cc2n1 | 28000
Cc1ccc(S(=O)(=O)n2ccc3ccc(-c4ccc5ccn(Cc6cccc(C(=O)O)c6)c5c4)cc32)cc1 | 1300
COC(=O)c1ccc(Cn2ccc3ccc(-c4ccc5ccn(Cc6cccc(C(=O)O)c6)c5c4)cc32)c(OC)c1 | 2000
COC(=O)c1cc(Cn2ccc3ccc(-c4ccc5ccn(Cc6cccc(C(=O)O)c6)c5c4)cc32)cc(C(=O)OC)c1 | 200
COc1cccc(Cn2ccc3cc(F)c(-c4ccc5ccn(Cc6cccc(C(=O)O)c6)c5c4)cc32)c1 | 3500
COC(=O)c1cccc(Cn2ccc3ccc(-c4ccc5cnn(Cc6cccc(C(=O)O)c6)c5c4)cc32)c1 | 2800
Nc1ccc(Cn2ccc3ccc(-c4ccc5ccn(Cc6cccc(C(=O)O)c6)c5c4)cc32)cc1 | 3000
CC(C)(C)OC(=O)N1CCC(Cn2ccc3ccc(-c4ccc5ccn(Cc6cccc(C(=O)O)c6)c5c4)cc32)CC1 | 1200
COc1cccc(CN2CCc3ccc(-c4ccc5ccn(Cc6cccc(C(=O)O)c6)c5c4)cc32)c1 | 1000
CC(C)(C)OC(=O)Nc1cccc(Cn2ccc3ccc(-c4ccc5ccn(Cc6cccc(C(=O)O)c6)c5c4)cc32)c1 | 2000
Cn1ccc2ccc(-c3ccc4ccn(Cc5cc(F)cc(C(=O)O)c5)c4c3)cc21 | 3600
COC(=O)c1cccc(Cn2ncc3ccc(-c4ccc5ccn(Cc6cccc(C(=O)O)c6)c5c4)cc32)c1 | 300
CC(C)(C)OC(=O)n1ccc2ccc(-c3ccc4ccn(Cc5cccc(C(=O)O)c5)c4c3)cc21 | 800
Cn1ccc2ccc(-c3ccc4c(c3)N(Cc3cccc(C(=O)O)c3)CC4)cc21 | > 10000
Cn1ccc2cc(F)c(-c3ccc4ccn(Cc5cc(F)cc(C(=O)O)c5)c4c3)cc21 | 2000
COc1cccc(CNc2cccc(-c3ccc4ccn(Cc5cccc(C(=O)O)c5)c4c3)c2)c1 | > 10000
COC(=O)c1cc(F)cc(Cn2ccc3ccc(-c4ccc5ccn(Cc6cccc(C(=O)O)c6)c5c4)cc32)c1 | 800
COc1cc(Cn2ccc3ccc(-c4ccc5ccn(Cc6cccc(C(=O)O)c6)c5c4)cc32)cc(C(=O)O)c1 | 8000
O=C(O)c1cccc(Cn2ccc3ccc(-c4ccc5ccn(Cc6cccc([N+](=O)[O-])c6)c5c4)cc32)c1 | 2000
CC(=O)Nc1cccc(Cn2ccc3ccc(-c4ccc5ccn(Cc6cccc(C(=O)O)c6)c5c4)cc32)c1 | 1000
